From US11926593B1, “6′-(3-bromophenyl)-2′-methoxy-3,4′-bipyridine-3′-carbonitrile as an antioxidant compound” (KING FAISAL UNIVERSITY, priority 2023, dated 2024) come the findings set out here.

A short description of this assay: DPPH radical scavenging antioxidant test. The assay is classed as biochemical. The note with it: 517 nm; for Inhibition (radical scavenging inhibition): DPPH 0.2 mL (0.75 mM), compound 3 μM in ethanol, 30 minutes in the dark. Here is the method: The antioxidant activity of 6′-(3-bromophenyl)-2′-methoxy-3,4′-bipyridine-3′-carbonitrile was investigated by 2,2-diphenyl-1-picrylhydrazyl (DPPH) in vitro tests that employ vitamin C as the positive control.
The antioxidant properties of the 6′-(3-bromophenyl)-2′-methoxy-3,4′-bipyridine-3′-carbonitrile compound were studied by adding 0.2 mL DPPH (0.75 mM)) to 6′-(3-bromophenyl)-2′-methoxy-3,4′-bipyridine-3′-carbonitrile (3 μM) (4) in ethanol. After 30 minutes of incubation in the dark, the absorbance was read against a blank at 517 nm. Ascorbic acid (vitamin C) was used as standard antioxidants (positive control). A blank sample was prepared by 0.2 mL of DPPH in 3 mL ethanol. A negative control sample was run using ethanol instead of the sample. The radical scavenging inhibition was calculated using the following equation: […]
The antioxidant activity for the synthesized compound is listed in Table 1, using Vitamin C as a reference.
(DPPH is a stable violet radical that fades when it is reduced.)

SMILES strings stand for the structures.

With `COc1nc(-c2cccc(Br)c2)cc(-c2cccnc2)c1C#N` [Product 4, 6′-(3-bromophenyl)-2′-methoxy-3,4′-bipyridine-3′-carbonitrile], the “Inhibition (radical scavenging inhibition)” value is recorded as 50%. Moreover, under “DPPH in vitro test, vitamin C as positive control”, the “antioxidant potential compared to vitamin C” value is “high potential as an antioxidant”.

Regarding `O=C1O[C@H]([C@@H](O)CO)C(O)=C1O` [vit c, Ascorbic acid, reference compound], the “Inhibition (radical scavenging inhibition)” value is 74%.
